Test system: Ishikawa cells
Assay: Tumorsphere growth with and without Mct-4 overexpression
Assay type: cell-based
Details: 72 hr
Protocol: After 18 hr, 10× drug was added, and after 72 hr, plates were imaged.

Cc1cc(-c2nc(-c3ccc(OC(F)(F)F)cc3)no2)nn1Cc1ccnc(N2CCN(C3CC3)CC2)c1 [Bay87-2243]
tumorsphere growth (Ishikawa cells, 384-well round bottom): tumorsphere growth inhibition | tumorsphere growth inhibition under Mct-4 overexpression (Mct-4 overexpressing Ishikawa cells): Mct-4 overexpression reverses tumorsphere growth inhibition

Source: US20240352533A1, “Monocarboxylic Acid Transporter 4 as a Biomarker for Hypoxia Driven Tumor Growth and Treatment” (NantBio, Inc., priority 2023, published 2024)
